Data from patent US9023789B2, “Amylin analogs and pharmaceutical compositions thereof” (Novo Nordisk A/S, priority 2012, dated 2015).

What was measured:
[1] = ASSAY (III) ThT fibrillation assay for physical stability; type: physicochemical
Procedure, shortened: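 Physical stability scored by ThT fluorescence (444 nm excitation, 485 nm emission) tracked every 20 min during 37 °C incubation with 960 rpm shaking, ThT at 1 μM final. Values are replicate means with SD at chosen times; HPLC against pramlintide standard gives initial and post-assay soluble concentrations.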

[2] = molecular target: T1, human amylin receptor (membranes from Amylin 3(a)/CRE-luc cells) (Homo sapiens, UniProt O60896+P30988); assay: ASSAY (V) binding to the human amylin receptor (SPA, 125I-rat amylin);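 further: competition binding of cell membranes (35 ng/µL) mixed with SPA beads in 384-well plates at 40 µL total volume, read by scintillation counting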
T1 construct: expressed in transfected cells
T1 sequence (P30988 25-474): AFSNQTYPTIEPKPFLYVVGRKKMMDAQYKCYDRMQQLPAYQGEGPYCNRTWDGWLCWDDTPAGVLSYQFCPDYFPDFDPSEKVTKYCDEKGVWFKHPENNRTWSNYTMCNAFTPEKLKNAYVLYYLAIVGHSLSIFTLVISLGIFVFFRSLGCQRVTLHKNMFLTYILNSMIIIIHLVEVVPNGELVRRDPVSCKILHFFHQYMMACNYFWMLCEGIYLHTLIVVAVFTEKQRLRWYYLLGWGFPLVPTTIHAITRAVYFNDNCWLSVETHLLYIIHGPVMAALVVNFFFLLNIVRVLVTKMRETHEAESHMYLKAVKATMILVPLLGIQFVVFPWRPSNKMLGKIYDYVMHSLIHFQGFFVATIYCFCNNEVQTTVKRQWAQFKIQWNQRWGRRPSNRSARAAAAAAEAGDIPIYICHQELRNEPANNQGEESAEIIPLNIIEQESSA
T1 sequence (O60896 24-148 partner): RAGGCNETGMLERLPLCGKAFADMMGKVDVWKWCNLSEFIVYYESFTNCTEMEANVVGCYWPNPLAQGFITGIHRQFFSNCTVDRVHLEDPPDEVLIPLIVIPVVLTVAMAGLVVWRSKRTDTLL

[3] = Table 5, selectivity, hCTR bind IC50 / hAmylin-R bind IC50
[4] = Table 5a, selectivity, hCTR bind IC50 / hAmylin-R bind IC50
[5] = Table 5b, selectivity, hCTR bind IC50 / hAmylin-R bind IC50
[6] = Table 5c, selectivity, hCTR bind IC50 / hAmylin-R bind IC50
[7] = Table 7, human binding selectivity, included for comparison
[8] = Table 7a (preferred compounds), human binding selectivity, included for comparison
[9] = ratio of human calcitonin receptor binding IC50 to human amylin receptor binding IC50

| ThT pH 4.0 lag time (h) [1] | Ratio hCT/hAmylin binding [2, 3] | Ratio hCT/hAmylin binding [2, 4] | Ratio hCT/hAmylin binding [2, 5] | Ratio hCT/hAmylin binding [2, 6] | Ratio hCT/hAmylin binding [2, 7] | Ratio hCT/hAmylin binding [2, 8] | Ratio hCT/hAmylin binding [2, 9] | Compound |
| --- | --- | --- | --- | --- | --- | --- | --- | --- |
| 4 h | 74.1 | 74.1 | 74.1 | 74.1 | 74.1 | 74.1 | 74.1 | CC[C@H](C)[C@H](NC(=O)[C@H](C)NC(=O)CNC(=O)[C@H](Cc1ccccc1)NC(=O)[C@H](CC(N)=O)NC(=O)[C@@H]1CCCN1C(=O)[C@H](CO)NC(=O)[C@H](CO)NC(=O)[C@H](Cc1c[nH]cn1)NC(=O)[C@H](CCCNC(=N)N)NC(=O)[C@H](CC(C)C)NC(=O)[C@H](Cc1ccccc1)NC(=O)[C@H](CC(N)=O)NC(=O)[C@H](C)NC(=O)[C@H](CC(C)C)NC(=O)[C@H](CCCNC(=N)N)NC(=O)[C@H](CCC(N)=O)NC(=O)[C@@H](NC(=O)[C@H](C)NC(=O)[C@@H]1CSSC[C@H](NC(=O)[C@@H](N)CCCCNC(=O)COCCOCCNC(=O)COCCOCCNC(=O)CC[C@H](NC(=O)CCCCCCCCCCCCCCCCCCC(=O)O)C(=O)O)C(=O)N[C@@H](CC(N)=O)C(=O)N[C@@H]([C@@H](C)O)C(=O)N[C@@H](C)C(=O)N[C@@H]([C@@H](C)O)C(=O)N1)[C@@H](C)O)C(=O)N1CCC[C@H]1C(=O)N[C@@H](CO)C(=O)N[C@@H](CO)C(=O)N[C@H](C(=O)N[C@@H](CC(N)=O)C(=O)N[C@H](C(=O)NCC(=O)N1CCC[C@H]1C(=O)N[C@@H](CC(N)=O)C(=O)N[C@H](C(=O)N[C@@H](Cc1ccc(O)cc1)C(N)=O)[C@@H](C)O)C(C)C)[C@@H](C)O [Example 98] |
| 12 h | 145.6 | 145.6 | 145.6 | 145.6 | 145.6 | 145.6 | 145.6 | CC[C@H](C)[C@H](NC(=O)[C@H](C)NC(=O)CNC(=O)[C@H](Cc1ccccc1)NC(=O)[C@H](CC(N)=O)NC(=O)[C@@H]1CCCN1C(=O)[C@H](CO)NC(=O)[C@H](CO)NC(=O)[C@H](Cc1c[nH]cn1)NC(=O)[C@H](CCCNC(=N)N)NC(=O)[C@H](CC(C)C)NC(=O)[C@H](Cc1ccccc1)NC(=O)[C@H](CCCNC(=N)N)NC(=O)[C@H](C)NC(=O)[C@H](CC(C)C)NC(=O)[C@H](CCCNC(=N)N)NC(=O)[C@H](CCC(N)=O)NC(=O)[C@@H](NC(=O)[C@H](C)NC(=O)[C@@H]1CSSC[C@H](NC(=O)[C@@H](N)CCCCNC(=O)CC[C@H](NC(=O)CCCCCCCCCCCCCCCCCCC(=O)O)C(=O)O)C(=O)N[C@@H](CC(N)=O)C(=O)N[C@@H]([C@@H](C)O)C(=O)N[C@@H](C)C(=O)N[C@@H]([C@@H](C)O)C(=O)N1)[C@@H](C)O)C(=O)N1CCC[C@H]1C(=O)N[C@@H](CO)C(=O)N[C@@H](CO)C(=O)N[C@H](C(=O)N[C@@H](CC(N)=O)C(=O)N[C@H](C(=O)NCC(=O)N[C@@H](CO)C(=O)N[C@@H](CC(N)=O)C(=O)N[C@H](C(=O)N[C@@H](Cc1ccc(O)cc1)C(N)=O)[C@@H](C)O)C(C)C)[C@@H](C)O [Example 83] |
